Measurements published in patent US20210332036A1, “PYRIMIDINE AND PYRAZINE HDAC1,2 INHIBITORS” (REGENACY PHARMACEUTICALS, LLC, priority 2018, published 2021).

Columns and labels:
[1] = molecular target: T1, HDAC1 (Homo sapiens, UniProt Q13547); assay: HDAC enzyme assay, HDAC1; assay type: biochemical; settings: 16 μM substrate, 10 min preincubation
T1 construct: purchased BPS Biosciences
Procedure: (§1) Compounds for testing were diluted in DMSO to 50 fold the final concentration and a ten-point three-fold dilution series was made. The compounds were diluted in assay buffer (50 mM HEPES, pH 7.4, 100 mM KCl, 0.001% Tween-20, 0.05% BSA, 20 μM TCEP) to 6-fold their final concentration. The HDAC enzymes (purchased from BPS Biosciences) were diluted to 1.5-fold their final concentration in assay buffer. The tripeptide substrate and trypsin at 0.05 μM final concentration were diluted in assay buffer at 6-fold their final concentration. The final enzyme concentrations used in these assays were 3.3 ng/ml (HDAC1), 0.2 ng/ml (HDAC2) and 0.08 ng/ml (HDAC3). The final substrate concentrations used were 16 μM (HDAC1), 10 μM (HDAC2) and 17 μM (HDAC3).
(§2) Five μl of compounds and 20 μl of enzyme were added to wells of a black, opaque 384 well plate in duplicate. Enzyme and compound were incubated together at room temperature for 10 minutes. Five μl of substrate was added to each well, the plate was shaken for 60 seconds and placed into a Victor 2 microtiter plate reader. The development of fluorescence was monitored for 60 min and the linear rate of the reaction was calculated. The IC50 was determined using Graph Pad Prism by a four parameter curve fit.

[2] = PK parameters, IP dosing (plasma and brain exposure); assay type: in vivo; parameters: AUC(0-t): concentration or dose not given beside the values; settings: Mouse IP; for Kp: brain/plasma, read-out: Brain AUC/Plasma AUC
[3] = molecular target: T2, HDAC3 (Homo sapiens, UniProt O15379); assay: HDAC enzyme assay, HDAC3; assay type: biochemical; settings: 17 μM substrate, 10 min preincubation
T2 construct: purchased BPS Biosciences
T2 sequence (O15379 whole entry): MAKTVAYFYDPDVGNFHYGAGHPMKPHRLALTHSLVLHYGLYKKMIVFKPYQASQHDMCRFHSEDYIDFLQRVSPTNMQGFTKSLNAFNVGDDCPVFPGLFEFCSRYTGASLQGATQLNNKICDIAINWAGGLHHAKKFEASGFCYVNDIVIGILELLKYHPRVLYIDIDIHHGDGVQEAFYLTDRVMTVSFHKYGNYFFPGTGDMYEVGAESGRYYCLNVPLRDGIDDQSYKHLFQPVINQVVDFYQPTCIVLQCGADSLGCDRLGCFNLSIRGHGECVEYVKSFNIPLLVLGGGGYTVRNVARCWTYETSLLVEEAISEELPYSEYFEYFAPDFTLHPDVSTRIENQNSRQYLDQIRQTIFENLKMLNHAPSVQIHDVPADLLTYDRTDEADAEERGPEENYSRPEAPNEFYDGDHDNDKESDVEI
T2 sequence (Q9Y618 395-489 partner limits assumed): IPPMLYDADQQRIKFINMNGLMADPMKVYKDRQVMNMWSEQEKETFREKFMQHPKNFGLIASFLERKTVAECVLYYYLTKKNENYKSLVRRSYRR
Procedure: as §1, §2

[4] = PK parameters, IV dosing (plasma and brain exposure); assay type: in vivo; parameters: AUC(0-t): concentration or dose not given beside the values; settings: Mouse IV; for Kp: brain/plasma, read-out: Brain AUC/Plasma AUC
Procedure: [The procedure below names another organism; the source lists this organism under the same test.] Male SD rats were fasted overnight. Compounds of the invention were dissolved in dimethyl acetamide at 10 times the final concentration, then Solutol HS 15 (BASF) was added to a final concentration of 10%. Finally 80% saline was added and vortexed to achieve a clear solution. For the IV dosing three animals were injected via the foot dorsal vein with 1 mg/kg compound. For the PO dosing 5 mg/kg of compound was delivered by oral gavage. Blood was collected via the tail vein into K2EDTA tubes at 5 minutes, 15 minutes, 30 minutes, 1 hour, 2 hours, 4 hours, 8 hours and 24 hours after dosing. The blood was centrifuged at 2000 g for 5 minutes at 4° C. to obtain plasma. The plasma was extracted with acetonitrile and the level of compound was analyzed by LC/MS/MS. The level of compound in plasma was calculated from a standard curve in rat plasma. The IV clearance (L/h/kg) and area under the curve (h*ng/mL) were calculated using WinNonLin software. The dose adjusted area under the curve for the IV and oral dosing were used to calculate the oral bioavailability.
Pharmacokinetic properties were assessed in a rat cassette dosing experiment. The IV clearance (IV Clr.) is in units of L/hr/kg. The oral maximum plasma concentration (PO Cmax) is in units of ng/ml. The oral plasma half-life (PO T1/2) is in units of hours. The oral area under the curve (PO AUC) is in units of hours*ng/ml. The fraction absorbed by the oral route (F %) is a percentage of the oral area under the curve to the IV area under the curve, dose adjusted.

[5] = molecular target: T3, HDAC2 (Homo sapiens, UniProt Q92769); assay: HDAC enzyme assay, HDAC2; assay type: biochemical; settings: 10 μM substrate, 10 min preincubation
T3 construct: purchased BPS Biosciences
T3 sequence (Q92769 whole entry): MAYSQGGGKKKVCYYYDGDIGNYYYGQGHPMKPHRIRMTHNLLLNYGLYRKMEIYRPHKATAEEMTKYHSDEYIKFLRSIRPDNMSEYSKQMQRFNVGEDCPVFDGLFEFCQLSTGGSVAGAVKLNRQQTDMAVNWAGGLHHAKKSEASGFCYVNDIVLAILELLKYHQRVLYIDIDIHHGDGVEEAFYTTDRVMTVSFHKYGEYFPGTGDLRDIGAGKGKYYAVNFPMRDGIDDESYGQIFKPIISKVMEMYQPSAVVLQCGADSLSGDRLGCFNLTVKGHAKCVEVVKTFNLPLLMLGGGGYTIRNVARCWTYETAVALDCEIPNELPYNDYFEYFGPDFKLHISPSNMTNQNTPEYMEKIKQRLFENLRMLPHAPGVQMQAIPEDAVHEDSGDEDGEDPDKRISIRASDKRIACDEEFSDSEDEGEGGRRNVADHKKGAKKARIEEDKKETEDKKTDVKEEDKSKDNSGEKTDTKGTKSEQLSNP
Procedure: as §1, §2

[6] = brain, read-out: AUC(last) Brain
[7] = plasma, read-out: AUC(last) Plasma

T1 sequence (Q13547 whole entry): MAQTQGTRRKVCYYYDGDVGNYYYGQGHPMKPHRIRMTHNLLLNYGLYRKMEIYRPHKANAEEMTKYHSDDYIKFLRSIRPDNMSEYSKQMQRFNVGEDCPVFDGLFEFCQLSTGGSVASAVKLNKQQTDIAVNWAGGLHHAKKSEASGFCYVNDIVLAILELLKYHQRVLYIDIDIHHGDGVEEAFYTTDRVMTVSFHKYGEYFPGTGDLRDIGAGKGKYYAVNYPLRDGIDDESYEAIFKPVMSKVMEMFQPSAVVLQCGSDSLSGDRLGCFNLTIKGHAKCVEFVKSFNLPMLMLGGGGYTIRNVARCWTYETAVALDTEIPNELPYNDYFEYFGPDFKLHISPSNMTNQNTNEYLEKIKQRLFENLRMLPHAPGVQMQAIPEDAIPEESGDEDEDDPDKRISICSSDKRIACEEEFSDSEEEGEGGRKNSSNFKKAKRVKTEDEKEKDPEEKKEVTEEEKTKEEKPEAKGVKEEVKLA

| Compound | IC50 [1] [nM] | AUC(0-t) [2, 6] [ng·h/mL] | AUC(0-t) [2, 7] [ng·h/mL] | Kp [2] | IC50 [3] [nM] | AUC(0-t) [4, 6] [ng·h/mL] | AUC(0-t) [4, 7] [ng·h/mL] | Kp [4] | IC50 [5] [nM] |
| --- | --- | --- | --- | --- | --- | --- | --- | --- | --- |
| Cc1ccc(-c2ccc(N)c(NC(=O)c3ccc(N4CCNCC4)cn3)c2)cc1 [Compound 001] | 10 to 20 | 64700 to 64800 | 6700 to 6800 | 1 to 5 | 480 to 490 | 19000 to 20000 | 1400 to 1500 | 10 to 15 | 30 to 40 |
| Nc1ccc(-c2cccs2)cc1NC(=O)c1ncc(N2CCNCC2)cn1 [Compound 007] | 10 to 20 | 900 to 1000 | 1800 to 1900 | 0.1 to 1.5 | 170 to 180 | 30 to 40 | 400 to 500 | 0.01 to 0.1 | 90 to 100 |
| Nc1ccc(-c2ccccc2)cc1NC(=O)c1ncc(N2CCNCC2)cn1 [Compound 009] | 10 to 20 | 200 to 300 | 1700 to 1800 | 0.1 to 1.5 | 200 to 210 | 300 to 400 | 300 to 400 | 0.8 to 1.5 | 70 to 80 |
| Nc1ccc(-c2cccs2)cc1NC(=O)c1ccc(OC[C@H](O)CO)cn1 [Compound 013] | 1 to 10 | 300 to 400 | 5900 to 6000 | 0.01 to 0.1 | 140 to 150 | 200 to 300 | 1100 to 1200 | 0.1 to 0.3 | 20 to 30 |
| Nc1cc(F)c(-c2cccs2)cc1NC(=O)c1ccc(N2CCNCC2)cn1 [Compound 002] | 1 to 10 | 23100 to 23200 | 2400 to 2500 | 5 to 10 | 200 to 210 | 9000 to 10000 | 400 to 500 | 20 to 25 | 10 to 20 |
| CC(=O)N1CCN(c2ccc(C(=O)Nc3cc(-c4cccs4)ccc3N)nc2)CC1 [Compound 010] | 1 to 10 | 200 to 300 | 2000 to 2100 | 0.1 to 1.5 | 120 to 130 | 200 to 300 | 500 to 600 | 0.1 to 1.5 | 10 to 20 |
| Nc1ccc(-c2ccoc2)cc1NC(=O)c1ncc(N2CCNCC2)cn1 [Compound 015] | 10 to 20 | < 100 | 3200 to 3300 | 0.01 to 0.1 | 110 to 120 | 100 to 200 | 500 to 600 | 0.1 to 1.5 | 30 to 40 |
| Nc1ccc(-c2cccs2)cc1NC(=O)c1ccc(OCCO)cn1 [Compound 005] | 1 to 10 | 2000 to 2100 | 2300 to 2400 | 0.1 to 1.5 | 110 to 120 | 600 to 700 | 600 to 700 | 0.8 to 1.2 | 10 to 20 |
| CNS(=O)(=O)Oc1ccc(-c2ccc(N)c(NC(=O)c3ccc(N4CCN(C)CC4)cn3)c2)cc1 [Compound 011] | 1 to 10 | < 100 | 900 to 1000 | 0.1 to 1.5 | > 2000 | 100 to 200 | 200 to 300 | 0.1 to 1.5 | 10 to 20 |
| Nc1ccc(-c2ccccc2)cc1NC(=O)c1ccc(N2CCNCC2)nn1 [Compound 003] | 1 to 10 | 7900 to 8000 | 4700 to 4800 | 1 to 5 | 170 to 180 | 3000 to 4000 | 1000 to 1100 | 1 to 5 | 20 to 30 |

Second part, the molecule after the results:

| IC50 [1] [nM] | AUC(0-t) [2, 6] [ng·h/mL] | AUC(0-t) [2, 7] [ng·h/mL] | Kp [2] | IC50 [3] [nM] | AUC(0-t) [4, 6] [ng·h/mL] | AUC(0-t) [4, 7] [ng·h/mL] | Kp [4] | IC50 [5] [nM] | Compound |
| --- | --- | --- | --- | --- | --- | --- | --- | --- | --- |
| 1 to 10 | 200 to 300 | 7400 to 7500 | 0.01 to 0.1 | 50 to 60 | 100 to 200 | 1500 to 1600 | 0.05 to 0.1 | 10 to 20 | Nc1ccc(-c2cccs2)cc1NC(=O)c1ccc(NC2CCN(C(=O)N3CCNCC3)CC2)cn1 [Compound 014] |
| 1 to 10 | 1300 to 1400 | 2900 to 3000 | 0.1 to 1.5 | 260 to 270 | 200 to 300 | 600 to 700 | 0.1 to 1.5 | 20 to 30 | COCCOc1ccc(C(=O)Nc2cc(-c3cccs3)ccc2N)nn1 [Compound 008] |
| 1 to 10 | 25000 to 25300 | 2700 to 2800 |  | 30 to 40 | 9000 to 10000 | 600 to 700 |  | 5 to 15 | Nc1ccc(-c2cccs2)cc1NC(=O)c1cnc(N2CCNCC2)cn1 [Compound 017] |
| 1 to 10 | 2100 to 2200 | 2300 to 2400 | 0.1 to 1.5 | 440 to 450 | 500 to 600 | 700 to 800 | 0.1 to 1.5 | 50 to 60 | COCCOc1ccc(C(=O)Nc2cc(-c3cccs3)ccc2N)nc1 [Compound 004] |
| 1 to 10 | < 100 | 900 to 1000 | 0.001 to 0.01 | 230 to 240 | < 100 | 300 to 400 | 0.01 to 0.1 | 30 to 40 | Nc1ccc(-c2ccccc2)cc1NC(=O)c1ncc(NCCOCc2cccnc2)cn1 [Compound 016] |
| 1 to 10 | 300 to 400 | 4300 to 4400 | 0.01 to 0.1 | 20 to 30 | 400 to 500 | 800 to 900 | 0.1 to 1.5 | 10 to 20 | Nc1ccc(-c2cncs2)cc1NC(=O)c1ccc(N2CCNCC2)cn1 [Compound 012] |
| 1 to 10 | 700 to 800 | 800 to 900 | 0.1 to 1.5 | 80 to 90 | 700 to 800 | 200 to 300 | 2 to 4 | 40 to 50 | CN1CCN(c2cnc(C(=O)Nc3cc(-c4cccs4)ccc3N)nc2)CC1 [Compound 006] |
